Source: US9457033B2, “Steroid alkaloids and uses thereof as antimicrobial agents against electron transport-deficient microbes and as potentiators for antimicrobial agents against pathogenic bacteria” (priority 2011, dated 2016)
≈ marks a conversion by molar mass, not a printed value. Like-named read-outs stand apart in the source and are kept apart here. Each block holds one compound with its values, some of them ahead of it.

Columns and labels:
[1] = test system: S. aureus MRSA COL; assay: MIC, microdilution in CAMHB 24 h; assay type: cell-based, Staphylococcus aureus; settings: Staphylococcus aureus
[2] = test system: S. aureus CF35A-L; assay: MIC, microdilution in CAMHB 24 h; assay type: cell-based, Staphylococcus aureus; settings: Staphylococcus aureus, MRSA
[3] = test system: protein, DNA, RNA and cell wall peptidoglycan biosynthesis in ATCC 29213; assay: Macromolecular biosynthesis assay, incorporation of radiolabeled precursors; assay type: cell-based, Staphylococcus aureus; settings: control antibiotics at approximately 4×MIC; FIG. 3A
[4] = test system: S. aureus ATCC 29213; assay: MIC, microdilution in CAMHB 24 h, with or without tomatidine/compound; assay type: cell-based, Staphylococcus aureus; settings: for Fold (−TO/+TO): tomatidine at 8 μg/ml; for MIC: Staphylococcus aureus
[5] = test system: S. aureus CF1A-L (normal strain); assay: MIC, microdilution in BHI 48 h; assay type: cell-based, Staphylococcus aureus
[6] = test system: S. aureus MA078038; assay: MIC, microdilution in CAMHB 24 h; assay type: cell-based, Staphylococcus aureus; settings: Staphylococcus aureus, MRSA
[7] = test system: S. aureus CF7A-L; assay: MIC, microdilution in CAMHB 24 h; assay type: cell-based, Staphylococcus aureus; settings: Staphylococcus aureus, MRSA
[8] = test system: S. aureus CF07-L; assay: MIC, microdilution in CAMHB 24 h; assay type: cell-based, Staphylococcus aureus; settings: Staphylococcus aureus, CF07L
[9] = test system: S. aureus CF6B-L; assay: MIC, microdilution in CAMHB 24 h; assay type: cell-based, Staphylococcus aureus; settings: Staphylococcus aureus, CF6BL
[10] = test system: S. aureus Newman; assay: MIC, microdilution in CAMHB 24 h; assay type: cell-based, Staphylococcus aureus; settings: Staphylococcus aureus
[11] = test system: S. aureus CF1A-L; assay: MIC, microdilution in CAMHB 24 h; assay type: cell-based, Staphylococcus aureus; settings: Staphylococcus aureus, CF1AL
[12] = test system: S. aureus 8325-4; assay: MIC, microdilution in CAMHB 24 h; assay type: cell-based, Staphylococcus aureus; settings: Staphylococcus aureus, 83254
[13] = test system: S. aureus N315; assay: microbe, parasite or virus in culture; assay type: cell-based, Staphylococcus aureus; settings: Staphylococcus aureus, MRSA
[14] = test system: S. aureus CF2A-L; assay: MIC, microdilution in CAMHB 24 h; assay type: cell-based; settings: Staphylococcus aureus, CF2AL
[15] = test system: S. aureus ATCC 29213; assay: MIC, microdilution in BHI 48 h (Examples 1, 3); assay type: cell-based, Staphylococcus aureus
[16] = test system: S. aureus CF07-L (normal strain); assay: MIC, microdilution in BHI 48 h (Examples 1, 3); assay type: cell-based, Staphylococcus aureus
[17] = test system: S. aureus SCV CF1D-S; assay: MIC, microdilution in BHI 48 h; assay type: cell-based, Staphylococcus aureus
[18] = test system: S. aureus Sa220c; assay: MIC, microdilution in CAMHB 24 h; assay type: cell-based, Staphylococcus aureus; settings: Staphylococcus aureus, MRSA
[19] = test system: S. aureus CF8E-L; assay: MIC, microdilution in CAMHB 24 h; assay type: cell-based, Staphylococcus aureus; settings: Staphylococcus aureus, CF8EL
[20] = test system: S. aureus CF4B-L; assay: MIC, microdilution in CAMHB 24 h; assay type: cell-based, Staphylococcus aureus; settings: Staphylococcus aureus, CF4BL
[21] = test system: S. aureus ATCC 43300; assay: MIC, microdilution in CAMHB 24 h; assay type: cell-based, Staphylococcus aureus; settings: Staphylococcus aureus, ATCC 43300 / MRSA
[22] = test system: S. aureus SCV NewbouldΔhemB; assay: MIC, microdilution in BHI 48 h; assay type: cell-based, Staphylococcus aureus
[23] = test system: S. aureus SHY97-3906; assay: MIC, microdilution in CAMHB 24 h; assay type: cell-based, Staphylococcus aureus; settings: Staphylococcus aureus, SHY973906
[24] = test system: S. aureus Mu50; assay: MIC, microdilution in CAMHB 24 h; assay type: cell-based, Staphylococcus aureus; settings: Staphylococcus aureus
[25] = test system: S. aureus ATCC 29213; assay: MICs of control antibiotics for macromolecular biosynthesis assays; assay type: cell-based; settings: Staphylococcus aureus, ATCC29213
[26] = test system: S. aureus ATCC BAA-41; assay: MIC, microdilution in CAMHB 24 h; assay type: cell-based, Staphylococcus aureus; settings: Staphylococcus aureus, ATCC BAA-41 / MRSA
[27] = test system: S. aureus Newbould (normal strain); assay: MIC, microdilution in BHI 48 h; assay type: cell-based, Staphylococcus aureus
[28] = test system: S. aureus Sa228c; assay: MIC, microdilution in CAMHB 24 h; assay type: cell-based, Staphylococcus aureus; settings: Staphylococcus aureus, MRSA
[29] = test system: S. aureus CF9A-L; assay: MIC, microdilution in CAMHB 24 h; assay type: cell-based, Staphylococcus aureus; settings: Staphylococcus aureus, MRSA
[30] = test system: S. aureus SCV CF07-S; assay: MIC, microdilution in BHI 48 h (Examples 1, 3); assay type: cell-based, Staphylococcus aureus
[31] = test system: S. aureus Newbould; assay: MIC, microdilution in CAMHB 24 h; assay type: cell-based, Staphylococcus aureus; settings: Staphylococcus aureus
[32] = test system: S. aureus SCVs (NewbouldΔhemB, CF07-S and CF1D-S); assay: MIC, microdilution in BHI 48 h, summary for SCVs; assay type: cell-based, Staphylococcus aureus; settings: all SCVs of Table 1
[33] = ATCC 29213, data not shown, read-out: MIC

Structure (SMILES): CN[C@H](CC(C)C)C(=O)N[C@H]1C(=O)N[C@@H](CC(N)=O)C(=O)N[C@H]2C(=O)N[C@H]3C(=O)N[C@H](C(=O)N[C@H](C(=O)O)c4cc(O)cc(O)c4-c4cc3ccc4O)[C@H](O)c3ccc(c(Cl)c3)Oc3cc2cc(c3O[C@@H]2O[C@H](CO)[C@@H](O)[C@H](O)[C@H]2O[C@H]2C[C@](C)(N)[C@H](O)[C@H](C)O2)Oc2ccc(cc2Cl)[C@H]1O [Vancomycin, vancomycin]
MIC ([1]; MRSA): 2 µg/mL (≈ 1.38 µM)
MIC [2]: 1 µg/mL (≈ 0.69 µM)
incorporation of radiolabeled precursors into the targeted macromolecules [3]: preferentially inhibited
Fold (−TO/+TO) ([4]; ATCC 29213): 1 fold
MIC ([4]; ATCC29213): 1 µg/mL (≈ 0.69 µM)
MIC ([4]; ATCC29213, read-out: MIC −TO): 1 µg/mL (≈ 0.69 µM)
MIC ([5]; Staphylococcus aureus): 1 to 2 µg/mL (≈ 0.69 to 1.38 µM)
MIC [6]: 0.5 to 1 µg/mL (≈ 0.345 to 0.69 µM)
MIC [7]: 1 µg/mL (≈ 0.69 µM)
MIC [8]: 1 to 2 µg/mL (≈ 0.69 to 1.38 µM)
MIC [9]: 0.5 to 1 µg/mL (≈ 0.345 to 0.69 µM)
MIC ([10]; NEWMAN): 1 µg/mL (≈ 0.69 µM)
MIC [11]: 1 µg/mL (≈ 0.69 µM)
MIC [12]: 1 µg/mL (≈ 0.69 µM)
MIC [13]: 0.5 µg/mL (≈ 0.345 µM)
MIC [14]: 1 µg/mL (≈ 0.69 µM)
MIC ([15]; ATCC 29213 + HQNO at 20 μg/ml): 2 µg/mL
MIC ([15]; Staphylococcus aureus, ATCC29213, ATCC 29213, without HQNO): 2 µg/mL (≈ 1.38 µM)
MIC ([15]; Staphylococcus aureus, ATCC29213, ATCC 29213 in BHI): 2 µg/mL (≈ 1.38 µM)
MIC ([15]; Staphylococcus aureus, ATCC29213, ATCC 29213 in MHBCA): 1 to 2 µg/mL (≈ 0.69 to 1.38 µM)
MIC ([16]; CF07-L + HQNO at 20 μg/ml): 2 µg/mL
MIC ([16]; CF07-L, without HQNO): 2 µg/mL (≈ 1.38 µM)
MIC ([16]; Staphylococcus aureus): 2 µg/mL (≈ 1.38 µM)
MIC ([17]; Staphylococcus aureus, SCVCF1DS): 2 µg/mL (≈ 1.38 µM)
MIC [18]: 1 µg/mL (≈ 0.69 µM)
MIC [19]: 1 to 2 µg/mL (≈ 0.69 to 1.38 µM)
MIC [20]: 1 µg/mL (≈ 0.69 µM)
MIC [21]: 0.5 to 1 µg/mL (≈ 0.345 to 0.69 µM)
MIC ([22]; Staphylococcus aureus): 2 µg/mL (≈ 1.38 µM)
MIC [23]: 0.5 to 1 µg/mL (≈ 0.345 to 0.69 µM)
MIC ([24]; MRSA / VISA): 4 µg/mL (≈ 2.76 µM)
MIC [25]: 0.5 to 1 µg/mL (≈ 0.345 to 0.69 µM)
MIC [26]: 1 µg/mL (≈ 0.69 µM)
MIC ([27]; Staphylococcus aureus): 1 µg/mL (≈ 0.69 µM)
MIC [28]: 1 µg/mL (≈ 0.69 µM)
MIC [29]: 1 µg/mL (≈ 0.69 µM)
MIC ([30]; CF07-S + HQNO at 20 μg/ml): 2 µg/mL
MIC ([30]; CF07-S, without HQNO): 2 µg/mL (≈ 1.38 µM)
MIC ([30]; Staphylococcus aureus, SCVCF07S): 2 µg/mL (≈ 1.38 µM)
MIC [31]: 0.5 to 1 µg/mL (≈ 0.345 to 0.69 µM)

MIC [25, 33]: 8 to 16 µg/mL (≈ 24.8 to 49.5 µM)
Structure (SMILES): O=C(N[C@H](CO)[C@H](O)c1ccc([N+](=O)[O-])cc1)C(Cl)Cl [chloramphenicol]
incorporation of radiolabeled precursors into the targeted macromolecules [3]: preferentially inhibited

Structure (SMILES): CCn1cc(C(=O)O)c(=O)c2cc(F)c(N3CCNCC3)cc21 [Norfloxacin, norfloxacin]
MIC ([1]; MRSA COL, Human (SSTI), read-out: MIC): 2 to 4 µg/mL (≈ 6.26 to 12.5 µM)
MIC ([2]; CF35A-L, Human (CF lungs), read-out: MIC): > 64 µg/mL
incorporation of radiolabeled precursors into the targeted macromolecules [3]: preferentially inhibited
Fold (−TO/+TO) ([4]; ATCC 29213): 1 fold
MIC ([4]; ATCC29213, ATCC 29213, Human (SSTI), read-out: MIC): 1 to 2 µg/mL (≈ 3.13 to 6.26 µM)
MIC ([4]; ATCC29213, ATCC 29213, absence of tomatidine, read-out: MIC −TO): 1 to 2 µg/mL (≈ 3.13 to 6.26 µM)
MIC ([4]; ATCC29213, ATCC 29213, presence of tomatidine at 8 μg/ml, read-out: MIC +TO): 1 to 2 µg/mL
MIC ([7]; CF7A-L, Human (CF lungs), read-out: MIC): > 64 µg/mL
MIC ([8]; CF07-L, Human (CF lungs), read-out: MIC): 1 to 2 µg/mL (≈ 3.13 to 6.26 µM)
MIC ([9]; CF6B-L, Human (CF lungs), read-out: MIC): > 64 µg/mL
MIC ([10]; Newman, Human (Osteo), read-out: MIC): 1 µg/mL (≈ 3.13 µM)
MIC ([11]; CF1A-L, Human (CF lungs), read-out: MIC): 1 µg/mL (≈ 3.13 µM)
MIC ([12]; 8325-4, Laboratory strain, read-out: MIC): 1 to 2 µg/mL (≈ 3.13 to 6.26 µM)
MIC ([14]; CF2A-L, Human (CF lungs), read-out: MIC): 0.5 to 1 µg/mL (≈ 1.57 to 3.13 µM)
MIC ([18]; Sa220c, Human (SSTI), read-out: MIC): > 64 µg/mL
MIC ([19]; CF8E-L, Human (CF lungs), read-out: MIC): 4 µg/mL (≈ 12.5 µM)
MIC ([20]; CF4B-L, Human (CF lungs), read-out: MIC): 1 µg/mL (≈ 3.13 µM)
MIC ([23]; SHY97-3906, Cow (mastitis), read-out: MIC): 0.5 to 1 µg/mL (≈ 1.57 to 3.13 µM)
MIC ([24]; Mu50, Human (SSTI), MRSA, VISA, read-out: MIC): > 64 µg/mL
MIC [25, 33]: 1 µg/mL (≈ 3.13 µM)
MIC [28]: > 64 µg/mL
MIC ([29]; CF9A-L, Human (CF lungs), read-out: MIC): > 64 µg/mL
MIC ([31]; Newbould, Cow (mastitis), read-out: MIC): 0.5 µg/mL (≈ 1.57 µM)

Structure (SMILES): C[C@H]1CC[C@]2(NC1)O[C@H]1C[C@H]3[C@@H]4CC[C@H]5C[C@@H](O[C@@H]6O[C@H](CO)[C@H](O[C@@H]7O[C@H](CO)[C@@H](O)[C@H](O[C@@H]8OC[C@@H](O)[C@H](O)[C@H]8O)[C@H]7O[C@@H]7O[C@H](CO)[C@@H](O)[C@H](O)[C@H]7O)[C@H](O)[C@H]6O)CC[C@]5(C)[C@H]4CC[C@]3(C)[C@H]1[C@@H]2C [Tomatine, tomatine]
MIC against all SCVs [32]: no MIC was observed
MIC ([5]; CF1A-L, normal strain): >16 µg/mL
MIC ([15]; ATCC 29213 + HQNO at 20 μg/ml): >16 µg/mL
MIC ([15]; ATCC 29213, without HQNO): >16 µg/mL
MIC ([15]; ATCC 29213 in BHI): >16 µg/mL
MIC ([15]; ATCC 29213 in MHBCA): >16 µg/mL
MIC ([16]; CF07-L + HQNO at 20 μg/ml): >16 µg/mL
MIC ([16]; CF07-L, normal strain): >16 µg/mL
MIC ([16]; CF07-L, without HQNO): >16 µg/mL
MIC ([17]; CF1D-S, SCV): >16 µg/mL
MIC ([22]; NewbouldΔhemB, SCV): >16 µg/mL
MIC ([27]; Newbould, normal strain): >16 µg/mL
MIC ([30]; CF07-S + HQNO at 20 μg/ml): >16 µg/mL
MIC ([30]; CF07-S, SCV): >16 µg/mL
MIC ([30]; CF07-S, without HQNO): >16 µg/mL
